Drawing on PubChem BioAssay (NCI), this text covers GI50 and TGI for 18 compounds.

Common to all, as to assay: growth of human tumour cells (NCI), 48 h
Assay [1] deals with BT-549 breast.
Assay [2] has as its system DU-145 prostate.
Assay [3] relates to HCC-2998 colon.
Assay [4] deals with HCT-116 colon.
The subject of assay [5] is LOX IMVI melanoma.
Assay [6] has as its system NCI-H522 lung.
Assay [7] has as its system SK-MEL-5 melanoma.
Assay [8] concerns UACC-257 melanoma.

Where “and” joins values, the source holds several entries; their conditions need not be identical. Equal entries are not always repeated.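 Cells were grown in 96-well plates and exposed to each compound for 48 hours at five concentrations; endpoints were interpolated linearly between bracketing concentrations, or set to the highest concentration if not reached. The concentration for 50% growth inhibition is given as GI50. TGI is the concentration that stops growth completely.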 Bounds are passed on as bounds.

Take `CC(=O)NC(CCc1ccc(Cl)c(Cl)c1)c1cccc(O)c(=O)c1` (configuration not stated): the GI50 in assay [1] was 0.803 µM; in assay [2] it was 1.18 µM; in assay [3], 1.47 µM; in assay [4] it was 0.315 µM; in assay [5] it was 0.559 µM; in assay [6] it was 0.488 µM. The GI50 in assay [7] is 0.234 µM; in assay [8], 0.649 µM. Besides, the TGI in assay [1] is 12.8 µM; in assay [2] it was greater than 49.2 µM; in assay [3] it was 13.9 µM; in assay [4] it was 15.2 µM; in assay [5] it was 7.5 µM; in assay [6], 11.9 µM. Further, the TGI is 1.14 µM in assay [7] and 4.4 µM in assay [8].

Turning to `CCN(CC)CCOc1ccc(/C(=C(\C)Cc2ccc(OC)cc2)c2ccc(O)cc2)cc1`, the GI50 in assay [2] was 2.14 µM; in assay [3], 1.91 µM; in assay [5], 1.74 µM; in assay [6] it was 1.89 µM; in assay [7] it was 1.63 µM; in assay [8], 1.89 µM. The TGI in assay [2] came out at 5 µM; in assay [3] it was 3.46 µM; in assay [5], 3.17 µM; in assay [6], 3.82 µM; in assay [7], 3 µM; in assay [8], 3.81 µM.

Turning to `N=C1C(c2nc3ccccc3c(=O)[nH]2)=C(O)CN1c1cccc(Cl)c1`, the GI50 in assay [1] was 13.7 µM; in assay [2] it was 5.12 µM; in assay [3] it was 34.3 µM; in assay [4] it was 2.79 µM; in assay [5] it was 5.68 µM; in assay [6], 4.57 µM. The GI50 was 1.26 µM in assay [7] and greater than 100 µM in assay [8]. Further, the TGI in assay [1] was greater than 100 µM; in assay [2], greater than 57.9 µM; in assay [3], greater than 100 µM; in assay [4], greater than 100 µM; in assay [5], greater than 100 µM; in assay [6], greater than 100 µM. Moreover, the results for the TGI in assay [7] and in assay [8] were 7.55 µM and greater than 100 µM, respectively.

Consider `C=CCc1cc(O)ccc1O`, for which the GI50 in assay [1] is 6.16 µM; in assay [2] it was 85 µM; in assay [3], greater than 100 µM; in assay [4], 16.8 µM; in assay [5] it was 17 µM; in assay [6], 2.49 µM. Besides, the results for the GI50 in assay [7] and in assay [8] were 43.3 µM and greater than 100 µM, respectively. Also, the TGI in assay [1] was greater than 100 µM; in assay [2], greater than 100 µM; in assay [3] it was greater than 100 µM; in assay [4] it was 31.1 µM; in assay [5], 48.8 µM; in assay [6] it was 11.1 µM. Also, the TGI in assay [7] and in assay [8] was greater than 100 µM each time.

For `CC(C)(Oc1cccc(N2CCC[C@@H](C(=O)N(Cc3ccc(-c4cn[nH]c4)cc3)C3CC3)C2)c1)C(=O)N1CCNCC1`, the GI50 was 13.3 µM in assay [1]; 14.5 µM in assay [2]; 3.06 µM in assay [3]; 12.6 µM in assay [4]; 11.8 µM in assay [5]; 12.3 µM in assay [6]. Moreover, the figures for the GI50 in assay [7] and in assay [8] were 10.3 µM and 12.2 µM, respectively. Moreover, the TGI in assay [1] was found to be 26.6 µM; in assay [2], 28 µM; in assay [3], 10.7 µM; in assay [4] it was 27.8 µM; in assay [5], 25 µM; in assay [6], 26 µM. Further, the TGI is 22.1 µM in assay [7] and 25.9 µM in assay [8].

On to `O=C1NC(c2cccc3ccccc23)Nc2ccc(Cl)cc21` (configuration not stated), for which the TGI was 0.169 µM and 1.43 µM in assay [2]; 0.285 µM and 0.0607 µM in assay [3]; 12.1 µM in assay [4]; 14.6 µM in assay [5].

Regarding `CCCCCCCCCCCCCCCC(=O)OCC1OC(OCCCC)[C@H](O[C@@H]2OC(C)C(OC(=O)CCC)C(O)C2O)C(O)C1O` (some centres not stated), the GI50 in assay [1] was 23.4 µM; in assay [2], 19.7 µM; in assay [4] it was 15.4 µM; in assay [5], 20 µM; in assay [6], 21.1 µM; in assay [7], 17.7 µM. The GI50 in assay [8] is 22.6 µM. Moreover, the TGI in assay [1] was found to be 41.7 µM; in assay [2], 35 µM; in assay [4], 28.7 µM; in assay [5], 44 µM; in assay [6] it was 46.7 µM; in assay [7], 34.2 µM. This compound also gave a TGI in assay [8] of 61.4 µM.

With `COc1ccc(/C=C/C(=O)C(=O)/C=C/c2ccc(OC)c(OC)c2)cc1OC`, the GI50 is 1.81 µM in assay [1]; 3.08 µM in assay [2]; 1.72 µM in assay [3]; 0.319 µM in assay [4]; 1.46 µM in assay [5]; 3.75 µM in assay [6]. For the same compound, the GI50 in assay [7] is 2.14 µM. Also, the TGI in assay [1] is 4.45 µM; in assay [2] it was 14.2 µM; in assay [3], 3.21 µM; in assay [4] it was 1.33 µM; in assay [5] it was 3.21 µM; in assay [6] it was 19.3 µM. The compound further showed a TGI in assay [7] of 6.15 µM.

As for `O=C(CCl)N1CCN(c2ccccn2)CC1`, the TGI in assay [2] is greater than 100 µM; in assay [3], 35.8 µM; in assay [4], greater than 100 µM; in assay [7] it was 35 µM; in assay [8] it was 65.5 µM.

For the compound `CCN(CC)Cc1cc(Nc2ccnc3ccc(OC)cc23)ccc1O`, the GI50 is 9.53 µM in assay [1]; 3.93 µM in assay [2]; 2.35 µM in assay [3]; 2.62 µM in assay [4]; 2.36 µM in assay [5]; 2.21 µM in assay [6]. In assay [7], the GI50 was 2.46 µM. The TGI turned out to be 27.9 µM in assay [1]; 16.8 µM in assay [2]; 7.1 µM in assay [3]; 15 µM in assay [4]; 6.48 µM in assay [5]; 5.61 µM in assay [6]. The compound further showed a TGI in assay [7] of 6.31 µM.

In the case of `O=C(O)C1CC[N-]CC1.O=C(O)C1CC[N-]CC1.[NH2-].[NH2-].[Pt+4]`, the GI50 in assay [1], in assay [2], in assay [4], in assay [5], in assay [6] and in assay [7] was greater than 100 µM throughout. For the same compound, the GI50 in assay [8] is greater than 100 µM. The TGI in assay [1], in assay [2], in assay [4], in assay [5], in assay [6] and in assay [7] was greater than 100 µM each time. Further, the TGI in assay [8] is greater than 100 µM.

For the compound `CCN1CCCCCCCCCC(=N/O)/C(=N\O)C1`, the TGI in assay [1], in assay [2], in assay [4], in assay [5], in assay [6] and in assay [7] was greater than 100 µM throughout. The compound further gave a TGI in assay [8] greater than 100 µM.

Regarding `COC(=O)COc1ccccc1/C=C1/N=C(c2ccccc2)N(c2c(C)n(C)n(-c3ccccc3)c2=O)C1=O`, the GI50 in assay [1] is 40.7 µM; in assay [2] it was greater than 100 µM; in assay [3] it was 47.3 µM; in assay [4] it was greater than 100 µM; in assay [5], 76.5 µM; in assay [6] it was 20 µM. In assay [7], the GI50 is greater than 100 µM. Besides, the TGI was greater than 100 µM in assay [1]; greater than 100 µM in assay [2]; greater than 100 µM in assay [3]; greater than 100 µM in assay [4]; greater than 100 µM in assay [5]; 48 µM in assay [6]. In addition, the TGI in assay [7] was greater than 100 µM.

As to `N#Cc1ncc(-c2ccc(C(F)(F)F)cc2)c(NC2CCCCCC2)n1`, the GI50 in assay [1] is 29.1 µM; in assay [2], 44.8 µM; in assay [3], 13.2 µM; in assay [4], 5.25 µM; in assay [6], 6.02 µM; in assay [7], 33.5 µM. Further, the GI50 in assay [8] is 13.7 µM. Also, the TGI in assay [1], in assay [2], in assay [3], in assay [4], in assay [6] and in assay [7] was greater than 100 µM throughout. The compound also gave a TGI in assay [8] greater than 100 µM.

Regarding `O=C(CCl)N1CCN(c2ccccc2)CC1`, the TGI was greater than 100 µM in assay [2]; 32.2 µM in assay [3]; 35.5 µM in assay [4]; 31.1 µM in assay [7]; 43.6 µM in assay [8].

Take `Cc1[nH]c(N)nc(=S)c1CCCNc1ccccc1`: the TGI was greater than 100 µM in assay [1]; greater than 100 µM in assay [2]; greater than 100 µM in assay [4]; greater than 100 µM in assay [5]; greater than 100 µM in assay [6]; 80 µM in assay [7]. In assay [8], this compound gave a TGI greater than 100 µM.

Regarding `c1ccc(C2=Nc3ccccc3N3CNN=C23)cc1`, the GI50 in assay [2] was 81.9 µM; in assay [3], greater than 100 µM; in assay [4], greater than 100 µM; in assay [5] it was greater than 100 µM; in assay [6], greater than 100 µM; in assay [7], 63.6 µM. Further, in assay [8], the GI50 is greater than 100 µM. In addition, the TGI in assay [2], in assay [3], in assay [4], in assay [5], in assay [6] and in assay [7] was greater than 100 µM throughout. In assay [8], the TGI is greater than 100 µM.

On to `CC(=O)NNc1nc(C)c(C(=O)/C=C/c2ccc(N(C)C)cc2)s1`, for which the TGI in assay [3], in assay [5], in assay [6], in assay [7] and in assay [8] was greater than 100 µM throughout.
